Reference: patent publication US7572444B2, “Binding proteins specific for human matriptase” (Amgen Fremont Inc., priority 2004, dated 2009)

Key:
[1] = tested on: unknown protease present in the B cell culture supernatant; experiment: QAR-MCA cleavage by unknown protease of B cell culture supernatant; assay type: biochemical; conditions: QAR-MCA substrate
Text: (§1) The development of the assay method was complicated by the finding that an unknown protease was present in the B cell culture supernatant that was able to cleave the QAR-MCA substrate. […] This was advantageous as the background cleavage would no longer affect the ability to identify neutralizing antibodies against Matriptase. The supernatant also contained an unknown Matriptase inhibitor that necessitated a relatively high Matriptase concentration in the assay.

[2] = target: T1, catalytic domain of Matriptase (Homo sapiens, UniProt Q9Y5Y6); experiment: Enzymatic assay with tripeptide QAR-MCA substrate (Tripeptide-MCA assay); assay type: biochemical; conditions: at the concentration that inhibits the unknown protease
T1 sequence (Q9Y5Y6 615-855): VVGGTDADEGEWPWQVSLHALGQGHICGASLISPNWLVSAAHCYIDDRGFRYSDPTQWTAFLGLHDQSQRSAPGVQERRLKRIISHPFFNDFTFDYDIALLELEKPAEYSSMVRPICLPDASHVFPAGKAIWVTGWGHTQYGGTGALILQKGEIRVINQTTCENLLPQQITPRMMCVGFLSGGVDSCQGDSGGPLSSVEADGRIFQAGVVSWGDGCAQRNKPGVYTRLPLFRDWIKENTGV
Protocol: All 972 wells were then analyzed in an enzymatic assay using the catalytic domain of Matriptase and the tripeptide QAR-MCA (Peptides International Inc., Louisville, Ky.) as substrate. The cleavage of the QAR-MCA substrate by Matriptase causes the release of a methylcoumarin amide group (MCA) as amino-methyl coumarin (AMC). The free AMC can then be detected using a fluorescent reader as a measure of Matriptase activity.
as §1
The wells were determined to be positive based on their ability to inhibit Matriptase activity in two assays compared with average of the irrelevant control wells (enzyme, substrate and B cell culture supernatant) shown below. The data is shown as a percentage of the average of the negative control wells (enzyme and substrate) as in Table 3.

Ramos cells = experiment: CDC assay; assay type: cell-based; conditions: 10, 5, 2.5 and 1.25 μg/mL, 25% human sera, 1 hour; sc95/96 as IgG1 or IgG2
Protocol: In this experiment, 100,000 Ramos cells in 25 μL of media were added to the bottom of a 96-well plate. […] Each sample point was run in quadruplicate. After 10 minutes at room temperature, 50 μL of 50% human sera (25% final concentration) was added to the cells and incubated at 37 degrees Celsius for 1 hour. CellTiterGlo reagent (100 μL) was added to each well and allowed to incubate on the cells for 10 minutes.

Raji cells = experiment: ADCC assay; assay type: cell-based, human; conditions: 0.0001 to 1 μg/ml, NK effector cells, 4 hours
Protocol: Raji cells were used as target cells for the ADCC assay. To prepare the target cells, Raji cells were harvested and resuspended in media at 1.0×10^6 cells/ml. Calcein (Sigma C1359) was then added to a final concentration of 10 μM, and the cells were incubated for 45-60 minutes at 37° C., after which the Raji cells were pelleted by centrifugation at 1200 rpm for 10 minutes. The supernatant was discarded and the cells were resuspended in growth media. The centrifugation step was repeated, the cells were resuspended at a concentration of 1.0×10^4 cells in 75μL media and were then plated at 1.0×10^4 cells per well in a round bottom plate. […] The cells and antibody were incubated for 30 minutes at room temperature.
The effector cells for the ADCC assay were prepared as follows. […] The cells were counted to determine the concentration of natural killer (NK) cells, diluted to a concentration of 9.0×10^4 cells per 75 μL, and then 75 μL of these cells were then added to the Raji cells from the step above and then incubated for 4 hours at 37° C. The plate was then centrifuged at 1200 rpm for 5 minutes, and 100 μL of the supernatant was transferred to a flat, black clear-bottom 96 well plate and subsequently read on a Victor plate reader using a 490 nm excitation and 530 nm emission wavelength.

[3] = tested on: Ramos tumor-bearing SCID mice; experiment: Ramos hind-limb paralysis model; assay type: in vivo; conditions: 5 mg/kg, d1, i.p., 1×10^6 Ramos cells i.v.
Protocol: The ability of sc95/96 to modulate the invasive and/or metastatic properties of Ramos cells was evaluated in a rodent hind-limb paralysis model. Without therapeutic intervention, SCID mice inoculated systemically with Ramos B lymphoma cells develop hind limb paralysis at ˜25 days post injection, presumably related to the accumulation of tumor cells in the spinal cord and/or brain tissues (dijoseph et al., 2004, Clinical Cancer Research 10: 8620-8629).
In this experiment, 7-8 week old C.B-17 SCID male mice were inoculated with 1×10^6 Ramos cells via tail vein injection. […] Groups 1-3 thereafter received weekly 25 mg/kg injections of antibody or an equivalent volume of PBS. Animals were given food and water ad libidum and monitored daily for signs of paralysis. Individual mice were euthanized when unable to move due to hind limb paralysis.

Molecule	inhibition of activity of the unknown protease [1]	effect on activity of Matriptase [2]	CDC on Ramos cells (Ramos cells)	Raji cell lysis by ADCC (Raji cells)	Median survival time [3]
O=S(=O)(F)Cc1ccccc1 [PMSF, phenylmethyl sulfonyl fluoride]	completely inhibit	without affecting the activity of Matriptase	–	–	–
Rituximab [reference compound]	–	–	did demonstrate CDC activity	induce Raji cell lysis by ADCC	greater than 45 days
